Test: recombinant barcode read abundance after kanamycin selection (control-corrected) (log10(CPM+1)); higher = more efficient recombination; sequences stand for … in AGTGCAGAGAAAATCGGCCAGTTTTCTCTGCCTGCAGTCCGCATGCCGT…AGATTTATGCAGCGGACTGCCTTTCTCCCAAAGTGATAAACCGGACAGTATCATGGACCGGTTTTCCCGGTAATCCGTATTTGCAAGGTTGGTTTCACT; site = the 11-nt target
How it was run: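 Recombination efficiency in this pooled E. coli screen uses counts per million of barcodes at recombinant junctions, averaged and corrected against the control. The reported form is log10(CPM+1). Two replicates were plated on chloramphenicol/ampicillin LB agar as control and two on chloramphenicol/ampicillin/kanamycin with 0.1 mM IPTG.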
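Further: IS621 recombinase and bridge RNA in Escherichia coli cells.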

With “CCACTAGCTTGGGTTCTAACCTGTTGCAG (site AATGGGTCTAA)” the “recombinant barcode read abundance (log10)” value was 0.
For “CCACTAGCTTGGGTTCTAACCTGTTGCAG (site CCACTAGCTCT)”, the “recombinant barcode read abundance (log10)” value was 0.85.
For “CCACTGCCTTGGGTTCTAACCTGTTGCCT (site CCACTACCTAG)”, the “recombinant barcode read abundance (log10)” value was 0.734.
For “CCACTGCCTTGGGTTCTAACCTGTTGCCT (site CCACTCCCTAG)”, the “recombinant barcode read abundance (log10)” value was 0.229.
With “CCACTGCCTTGGGTTCTAACCTGTTGCCT (site CCACTGCCTAG)” the “recombinant barcode read abundance (log10)” value was 0.862.
For “CCACTGCCTTGGGTTCTAACCTGTTGCCT (site CCACTTCCTAG)”, the “recombinant barcode read abundance (log10)” value was 0.0699.
In the case of “CCAGAGTCTTGGGTTCTAACCTGTTGCCG (site CCAGAGTCTCG)”, the “recombinant barcode read abundance (log10)” value is reported as 0.288.
With “CCAGAGTCTTGGGTTCTAACCTGTTGCCG (site CCAGAGTCTTG)” the “recombinant barcode read abundance (log10)” value was 0.152.
For “CCAGATTCTTGGGTTCTAACCTGTTGCCT (site CAAGATTCTAG)”, the “recombinant barcode read abundance (log10)” value was 0.154.
In the case of “CCAGATTCTTGGGTTCTAACCTGTTGCCT (site CCAGATTCTAG)”, the “recombinant barcode read abundance (log10)” value is reported as 0.206.
With “CCAGATTCTTGGGTTCTAACCTGTTGCCT (site CGAGATTCTAG)” the “recombinant barcode read abundance (log10)” value was 0.297.
In the case of “CCAGATTCTTGGGTTCTAACCTGTTGCCT (site CTAGATTCTAG)”, the “recombinant barcode read abundance (log10)” value is reported as 0.144.
For “CCAGTAGCTTGGGTTCTAACCTGTTGCGG (site CCAGAAGCTAC)”, the “recombinant barcode read abundance (log10)” value was 0.0355.
With “CCAGTAGCTTGGGTTCTAACCTGTTGCGG (site CCAGTAGCTCC)” the “recombinant barcode read abundance (log10)” value was 1.01.
With “CCAGTATCTTGGGTTCTAACCTGTTGCAT (site CCAGTATCTAT)” the “recombinant barcode read abundance (log10)” value was 0.796.
For “CCAGTATCTTGGGTTCTAACCTGTTGCAT (site TAGCGGCCTCC)”, the “recombinant barcode read abundance (log10)” value was 0.0866.
For “CCATAGGCTTGGGTTCTAACCTGTTGCTG (site CCATAGGCTCA)”, the “recombinant barcode read abundance (log10)” value was 0.732.
With “CCATAGGCTTGGGTTCTAACCTGTTGCTG (site GAGAGAACTAG)” the “recombinant barcode read abundance (log10)” value was 0.0117.
In the case of “CCATATGCTTGGGTTCTAACCTGTTGCCT (site AACACGACTGA)”, the “recombinant barcode read abundance (log10)” value is reported as 0.0524.
For “CCATATGCTTGGGTTCTAACCTGTTGCCT (site CCATATGCTAG)”, the “recombinant barcode read abundance (log10)” value was 0.148.
With “CCATTCCCTTGGGTTCTAACCTGTTGCTA (site CCATTCCCTTA)” the “recombinant barcode read abundance (log10)” value was 0.43.
With “CCATTCCCTTGGGTTCTAACCTGTTGCTA (site TTGACGGCTAG)” the “recombinant barcode read abundance (log10)” value was 0.0589.
For “CCATTGTCTTGGGTTCTAACCTGTTGCCG (site CCATTGTCTCG)”, the “recombinant barcode read abundance (log10)” value was 0.124.
For “CCATTGTCTTGGGTTCTAACCTGTTGCCG (site GTTAGAACTAA)”, the “recombinant barcode read abundance (log10)” value was 0.128.
In the case of “CCGAATTCTTGGGTTCTAACCTGTTGCTT (site CCGAATTCTAA)”, the “recombinant barcode read abundance (log10)” value is reported as 0.113.
In the case of “CCGAATTCTTGGGTTCTAACCTGTTGCTT (site TACCCACCTCT)”, the “recombinant barcode read abundance (log10)” value is reported as 0.00604.
With “CCGAGTCCTTGGGTTCTAACCTGTTGCCT (site CCGAATCCTAG)” the “recombinant barcode read abundance (log10)” value was 0.328.
In the case of “CCGAGTCCTTGGGTTCTAACCTGTTGCCT (site CCGACTCCTAG)”, the “recombinant barcode read abundance (log10)” value is reported as 0.303.
In the case of “CCGAGTCCTTGGGTTCTAACCTGTTGCCT (site CCGAGTCCTAG)”, the “recombinant barcode read abundance (log10)” value is reported as 0.246.
For “CCGAGTCCTTGGGTTCTAACCTGTTGCCT (site CCGATTCCTAG)”, the “recombinant barcode read abundance (log10)” value was 1.2.
With “CCGATATCTTGGGTTCTAACCTGTTGCCT (site CCGATATCTAG)” the “recombinant barcode read abundance (log10)” value was 0.287.
With “CCGATATCTTGGGTTCTAACCTGTTGCCT (site CCGCTATCTAG)” the “recombinant barcode read abundance (log10)” value was 0.707.
For “CCGATATCTTGGGTTCTAACCTGTTGCCT (site CCGGTATCTAG)”, the “recombinant barcode read abundance (log10)” value was 1.97.
In the case of “CCGATATCTTGGGTTCTAACCTGTTGCCT (site CCGTTATCTAG)”, the “recombinant barcode read abundance (log10)” value is reported as 0.567.
In the case of “CCGCAGACTTGGGTTCTAACCTGTTGCCA (site CCGCAGACTTG)”, the “recombinant barcode read abundance (log10)” value is reported as 0.0394.
For “CCGCAGACTTGGGTTCTAACCTGTTGCCA (site TCGCAGACTAG)”, the “recombinant barcode read abundance (log10)” value was 0.0447.
For “CCGCATACTTGGGTTCTAACCTGTTGCCT (site CAGCATACTAG)”, the “recombinant barcode read abundance (log10)” value was 0.0752.
For “CCGCATACTTGGGTTCTAACCTGTTGCCT (site CCGCATACTAG)”, the “recombinant barcode read abundance (log10)” value was 0.277.
In the case of “CCGCATACTTGGGTTCTAACCTGTTGCCT (site CGGCATACTAG)”, the “recombinant barcode read abundance (log10)” value is reported as 0.0516.
In the case of “CCGCATACTTGGGTTCTAACCTGTTGCCT (site CTGCATACTAG)”, the “recombinant barcode read abundance (log10)” value is reported as 0.559.
With “CCGCCGGCTTGGGTTCTAACCTGTTGCCT (site CCGCCAGCTAG)” the “recombinant barcode read abundance (log10)” value was 0.
For “CCGCCGGCTTGGGTTCTAACCTGTTGCCT (site CCGCCCGCTAG)”, the “recombinant barcode read abundance (log10)” value was 0.222.
In the case of “CCGCCGGCTTGGGTTCTAACCTGTTGCCT (site CCGCCGGCTAG)”, the “recombinant barcode read abundance (log10)” value is reported as 0.146.
With “CCGCCGGCTTGGGTTCTAACCTGTTGCCT (site CCGCCTGCTAG)” the “recombinant barcode read abundance (log10)” value was 0.0797.
With “CCGCCTGCTTGGGTTCTAACCTGTTGCCT (site CCGCCAGCTAG)” the “recombinant barcode read abundance (log10)” value was 0.293.
With “CCGCCTGCTTGGGTTCTAACCTGTTGCCT (site CCGCCCGCTAG)” the “recombinant barcode read abundance (log10)” value was 0.198.
For “CCGCCTGCTTGGGTTCTAACCTGTTGCCT (site CCGCCGGCTAG)”, the “recombinant barcode read abundance (log10)” value was 0.24.
For “CCGCCTGCTTGGGTTCTAACCTGTTGCCT (site CCGCCTGCTAG)”, the “recombinant barcode read abundance (log10)” value was 0.0789.
With “CCGCGTCCTTGGGTTCTAACCTGTTGCTA (site CCGCCTCCTTC)” the “recombinant barcode read abundance (log10)” value was 0.128.
For “CCGCGTCCTTGGGTTCTAACCTGTTGCTA (site CCGCGTCCTTA)”, the “recombinant barcode read abundance (log10)” value was 0.111.
With “CCGCTATCTTGGGTTCTAACCTGTTGCCT (site CCGATATCTAG)” the “recombinant barcode read abundance (log10)” value was 0.199.
For “CCGCTATCTTGGGTTCTAACCTGTTGCCT (site CCGCTATCTAG)”, the “recombinant barcode read abundance (log10)” value was 0.379.
In the case of “CCGCTATCTTGGGTTCTAACCTGTTGCCT (site CCGGTATCTAG)”, the “recombinant barcode read abundance (log10)” value is reported as 0.104.
With “CCGCTATCTTGGGTTCTAACCTGTTGCCT (site CCGTTATCTAG)” the “recombinant barcode read abundance (log10)” value was 0.0555.
In the case of “CCGCTCGCTTGGGTTCTAACCTGTTGCCT (site CCGCTCGCTAG)”, the “recombinant barcode read abundance (log10)” value is reported as 0.146.
In the case of “CCGCTCGCTTGGGTTCTAACCTGTTGCCT (site CCGCTTACTAG)”, the “recombinant barcode read abundance (log10)” value is reported as 0.117.
For “CCGTCGTCTTGGGTTCTAACCTGTTGCCT (site CCGTCATCTAG)”, the “recombinant barcode read abundance (log10)” value was 0.0517.
For “CCGTCGTCTTGGGTTCTAACCTGTTGCCT (site CCGTCGTCTAG)”, the “recombinant barcode read abundance (log10)” value was 0.255.
For “CCGTCTACTTGGGTTCTAACCTGTTGCCA (site CCGTCTACTTG)”, the “recombinant barcode read abundance (log10)” value was 0.121.
For “CCGTCTACTTGGGTTCTAACCTGTTGCCA (site TAACTGTCTAA)”, the “recombinant barcode read abundance (log10)” value was 0.164.
For “CCGTCTACTTGGGTTCTAACCTGTTGCTC (site CCGTCTACTAA)”, the “recombinant barcode read abundance (log10)” value was 0.0412.
With “CCGTCTACTTGGGTTCTAACCTGTTGCTC (site CCGTCTACTCA)” the “recombinant barcode read abundance (log10)” value was 0.209.
With “CCGTCTACTTGGGTTCTAACCTGTTGCTC (site CCGTCTACTGA)” the “recombinant barcode read abundance (log10)” value was 0.0724.
For “CCGTCTACTTGGGTTCTAACCTGTTGCTC (site CCGTCTACTTA)”, the “recombinant barcode read abundance (log10)” value was 0.0131.
In the case of “CCGTTGTCTTGGGTTCTAACCTGTTGCTA (site CCGTTGTCTTA)”, the “recombinant barcode read abundance (log10)” value is reported as 0.48.
For “CCGTTGTCTTGGGTTCTAACCTGTTGCTA (site GGTCGTACTAG)”, the “recombinant barcode read abundance (log10)” value was 0.0443.
